One experiment has as its system Enteric. As to the kind of experiment: MADM (BACcel) phenotype/sensitivity by growth analysis, surveillance mini-BAL. The format is cell-based. The settings on record: Spec# 005-D7, BACcel ID Enteric, 1.26 × 10^5 CFU/ml. Here is the method:
(§1) Adult MICU patients with identified surrogate were included within 72 hours of intubation and if anticipated to require MV for >48 h. Moribund state or pregnancy were exclusions. Surveillance mini-BAL (Combicath, Plastimed) was performed on Day 1, 3, 5, 7 and 10 of MV. Samples were split and processed for both a) routine respiratory quantitative microbiological culture and sensitivity assays (>48 h result availability) and b) rapid (<8 hour) flowcell/surface-capture assays using the MADM system. Viable microorganisms were identified using growth analysis enhanced by a focused VAP antibody panel (S. aureus, P. aeruginosa, A. baumannii). Untypable organisms were also reported. Sensitivity was assessed using growth analysis. Attending physicians were blinded to MADM system results.
BAL sample were prepared, removing debris and separating microorganisms from other sample material. Sample microorganisms were introduced into a multichannel fluidic cassette as described elsewhere herein. […]
The automated digital microscopy system was used to perform darkfield imaging of 10 fields of view every 10 minutes for 180 minutes in each flowcell channel. […] Quantitation was performed by counting identified microorganisms and computing original specimen CFU/mL.

For the next experiment, the system named is Steno. The experiment is described as above. The format is cell-based, S. maltophilia. The method, then:
as §1
(§2) BAL sample were prepared, removing debris and separating microorganisms from other sample material. Sample microorganisms were introduced into a multichannel fluidic cassette as described elsewhere herein. Bacteria were concentrated and retained on the lower surface of all flowcells using low-voltage electrical field (5 min) Antibody labeling of bacteria in flowcells was used to aid identification.
(§3) The automated digital microscopy system was used to perform darkfield imaging of 10 fields of view every 10 minutes for 180 minutes in each flowcell channel. Initial epifluorescence imaging was also performed for antibody detection. […] Identification consisted of probability scores based on microorganism morphology and growth rates. Antibody labeling identification data was also incorporated. Observed microorganisms were then classified as STAU, PSAE, or non-target. Antibiotic responses were used to aid identification when appropriate. Quantitation was performed by counting identified microorganisms and computing original specimen CFU/mL.

Experiment [1] concerns Pseudomonas aeruginosa (PSAE). The experiment can be described thus: MADM system resistance phenotype tests on respiratory specimens. The format is cell-based. The settings on record: ID PSAE. Here is the method:
(§4) These specimens were prepped for introduction into the MADM system. The system performed quantitative ID for Staphylococcus aureus (STAU), Pseudomonas aeruginosa (PSAE), and Acinetobacter spp. (ABCC). Concurrent quantitative culture was performed on specimens. The MADM system performed resistance phenotype tests on STAU-containing specimens for cefoxitin (FOX) MRSA phenotyping and clindamycin (CLI) resistance. The system tested ABCC- and PSAE-containing specimens for amikacin (AN) and imipenem (IMP) resistance.
(§5) Specimen preparation used a brief procedure to release bacteria, reduce imaging background, and suspend bacteria in a low ionic strength buffer. […] The remaining 62 specimens were tested using the MADM system.
(§6) 20 μL samples of prepared specimen were pipetted into independent flowcell channels and a low-voltage electrical field was applied for 5 minutes. The electrical field concentrated bacteria onto a functional surface coating that immobilized the bacteria on the lower flowcell surface. Each flowcell channel received only one type of test reagent solution that contained a selective agent if required (only for channels used to test AB, sulbactam 32 μg/mL).
(§7) The instrument acquired images at 10-minutes intervals for 180 minutes, using 10 fields of view in each flowcell channel through a 20× objective. Imaging used darkfield illumination. Identification variables included response to selective agents (AB with sulbactam), cell morphology, growth morphology, and growth rate.
(§8) Identification algorithms applied to each individual immobilized bacterial cell. The system measured the amount of change in mass over time to compute growth rates. Identification consisted of computing and combining probability scores for morphology, response to selective media, and growth rates to produce a receiver operating characteristic curve (ROC) to derive classification criteria.

The subject of experiment [2] is Pseudomonas aeruginosa (PSAE). The format is cell-based. The settings on record: ID PSAE, culture result.
Source text: (§9) A total of 281 de-identified remnant respiratory specimens were collected from hospital and commercial sources. The specimens included 25 endotracheal aspirates (ETA) of unknown age obtained from a specimen vendor. Also included were 230 mini-bronchoalveolar lavage (mini-BAL) and 26 ETA specimens obtained from Denver Health Medical Center (DHMC). DHMC specimens were 7-21 days old. AST results were available for all mini-BAL specimens but not for ETA. Accompanying reports also included semi-quantitative ID used to select 92 bacteria-positive specimens for analysis using the MADM system. Targets included Pseudomonas aeruginosa, Acinetobacter baumannii complex, and Staphylococcus aureus. Controls used standard culturing methods (Cx).
as §4

The subject of experiment [3] is Acinetobacter spp. (ABCC). As to the kind of experiment: MADM system resistance phenotype tests on respiratory specimens. The format is cell-based, Acinetobacter sp. The settings on record: ABCC-positive specimen (specimen name not given). Here is the method:
as §4, §5, §6, §7, §8

Experiment [4] relates to Acinetobacter spp. (ABCC). The settings on record: ABCC-positive specimen (specimen name not given); culture result.
Source text: as §9, §4

For experiment [5], the system named is E. coli. As to the kind of experiment: Membrane potential indicator, red:green fluorescence ratio. The format is cell-based. The settings on record: O/N refrigerator stock vs CCCP-treated E. coli. The source says:
(§10) Physiologic indicators of active bacteria include indicators of growth, responsiveness to external stimulus, transcription, translation, energy dependent activity, enzyme activity, and an intact permeability barrier. The indicators tested experimentally were grouped according to the following functional categories of physiologic states to which they are responsive, which included indicators of respiratory and metabolic activity, and membrane integrity.
(§11) Active bacterial cells maintain a proton gradient across their cell membranes, creating a membrane potential that may be measured using fluorescent dyes. However, the dyes used in this study to evaluate membrane potential are toxic to bacteria and can only be used as an endpoint assay.
DiOC2(3) (Molecular Probes) is a dye that fluoresces in the red channel when it is highly concentrated and self-associates in cells with an intact membrane potential. […] The red:green fluorescence ratio is used to normalize the fluorescence results of cells with differing sizes. Carbonylcyanide-m-chlorophenylhydrazone (CCCP) is a proton ionophore that disrupts the proton gradient and was used to treat E. coli cells in an experimental sample that was compared to an untreated overnight refrigerator stock.

Experiment [6] relates to Staphylococcus aureus (STAU). The experiment can be described thus: MADM system resistance phenotype tests on respiratory specimens. The format is cell-based. The settings on record: for resistance phenotype result (S/R), MADM: ID STAU, MRSA by FOX. Here is the method:
(ABCC). Concurrent quantitative culture was performed on specimens.
Specimen preparation used a brief procedure to release bacteria, reduce imaging background, and suspend bacteria in a low ionic strength buffer. […] We rejected 10 samples with heavy interfering background when dilution to OD600=0.3 yielded organism counts inadequate for analysis. We rejected 7 samples for other technical deficiencies. The remaining 62 specimens were tested using the MADM system.
as §6, §7, §8

In another experiment the test system is STAU. As to the kind of experiment: MADM (BACcel) phenotype/sensitivity by growth analysis, surveillance mini-BAL. The format is cell-based, S. aureus. The settings on record: Spec# 008-D7, BACcel ID STAU, 1.11 × 10^6 CFU/ml. The method, then: as §1, §2, §3
Experiment [7] has as its system Staphylococcus aureus (SA). The experiment can be described thus: Same-day blood culture MADM drug resistance phenotyping. The format is cell-based. The settings on record: SA in 6 μg/mL FOX, dark-field images over 3 hours (FIG. 10B). The method, then: The MADM system used a custom microscope and pipetting robot, plus an evaluation system, as described herein. 32-channel disposable cassettes (FIG. 4A) enabled live microorganism immobilization for microscopy and fluid exchanges for different test agents. The microscope scanned 40 image fields in each flowcell channel, each channel having organisms extracted from about 3.5 μL of prepared inoculum.
Simulated blood specimens consisted of isolates spiked into 10 mL each of 29 aliquots of two short-fill CPD blood bank bags to make approximately 5 CFU/mL of bacterial target species, confirmed by quantitative culture. Spiked isolates included 14 Staphylococcus aureus (SA), 3 Pseudomonas aeruginosa (PA), or 12 non-target Gram-negative bacilli species. Dilution of each sample with 30 mL of modified TSB culture medium promoted growth. 20 additional control aliquots contained no spikes. 4-hour incubation at 35° C., followed with brief spin cleanup, ended with pellet resuspension into an electrokinetic buffer to make 1 mL samples for MADM system analysis. 20 μL sample aliquots were then pipetted into 14 cassette flowcells. A 5-minute low-voltage electrokinetic capture was performed to concentrate microorganisms on the lower surface of each flowcell where a capture coating immobilized the bacterial cells. […]

The test system of experiment [8] is E. coli. The experiment can be described thus: Respiratory/metabolic activity indicator labeling (2-NBDG uptake). The format is cell-based. The settings on record: overnight refrigerator stock culture; approximately 1 min of exposure to 1 μM.
Source text: as §10
(§12) 2-NBDG (Molecular Probes) is a fluorescent derivative (green channel) of D-glucose that is internalized by active bacteria.

For another experiment, the system named is H. influenzae. Described as above. The format is cell-based. The settings on record: overnight refrigerator culture, viability independently verified.
Source text: as §10, §12

The subject of the next experiment is K. pneumoniae. The experiment is described as above. The format is cell-based. The settings on record: overnight refrigerator stock culture; approximately 1 min of exposure to 1 μM.
Source text: as §10, §12

For the next experiment, the system named is S. aureus. The description is as above. The format is cell-based. The settings on record: overnight refrigerator culture, viability independently verified.
Source text: as §10, §12

The test system of another experiment is S. maltophilia. The experiment is described as above. The format is cell-based. The settings on record: overnight refrigerator culture; negative control (does not metabolize glucose).
Source text: as §10, §12

Experiment [9] deals with E. coli. As to the kind of experiment: Membrane potential indicator staining. The settings on record: 10 µg/ml DiBAC4(3), 15 min, room temp. The format is cell-based.
Source text: as §10, §11
DiBAC4(3) (Molecular Probes) is an anionic dye that enters depolarized cells (i.e., cells lacking a membrane potential) and fluoresces in the […] channel when it binds to intracellular proteins or membranes. Using this indicator, 18.5% of an overnight refrigerator stock (control) and 95% of heat-killed E. coli stained with 10 µg/ml DiBAC4(3) after a 15 min incubation period at room temp.

Setting [10] is: Spec# 006-D1, BACcel ID Steno, 7.68 × 10^5 CFU/ml.
Where [11] appears, read: Spec# 006-D3, BACcel ID Steno, 1.60 × 10^4 CFU/ml.

Read-outs that look alike come from different tables or passages of the source.

Data on six compounds can be found in patent US20160010138A1, “RAPID DETERMINATION OF MICROBIAL DROWTH AND ANTIMICROBIAL SUSEPTABILITY” (priority 2013, published 2016).

Regarding `CC(C)(O/N=C(\C(=O)N[C@@H]1C(=O)N2C(C(=O)[O-])=C(C[n+]3ccccc3)CS[C@H]12)c1csc(N)n1)C(=O)O` [CAZ, ceftazidime], the “Phenotype, sensitivity (growth in antibiotic)” value in the experiment with Enteric is given as “all growth”; with Steno (setting [10]) it was “growth, TZP-”; with Steno (setting [11]), “growth, TZP-”.

In the case of `C[C@@H](O)[C@H]1C(=O)N2C(C(=O)O)=C(SCCN=CN)C[C@H]12` [IMP, imipenem], the “resistance phenotype result (S/R), MADM” value is recorded as “S” in experiment [1] (specimen DH 430, Mini-BAL); “S” in experiment [1] (specimen DH 554, BAL); “S” in [1] (specimen DH 641, Mini-BAL); “S” in experiment [3]. Moreover, the “resistance phenotype result (S/R), Cx” value is “S” in experiment [2] (specimen DH 430, Mini-BAL); “S” in experiment [2] (specimen DH 554, BAL); “S” in experiment [2] (specimen DH 641, Mini-BAL); “S” in experiment [4].

For `CCN1/C(=C/C=C/c2oc3ccccc3[n+]2CC)Oc2ccccc21.[I-]` [DiOC2(3)], the “red:green fluorescence ratios” value in the experiment on E. coli [5] is “No significant difference”.

Consider `CO[C@@]1(NC(=O)Cc2cccs2)C(=O)N2C(C(=O)O)=C(COC(N)=O)CS[C@@H]21` [FOX, cefoxitin], for which the “resistance phenotype result (S/R), MADM” value in experiment [6] (specimen DH 425, Mini-BAL) is “R”; in experiment [6] (specimen DH 427, Mini-BAL), “S”; in experiment [6] (specimen DH 439, Mini-BAL) it was “R”; in [6] (specimen DH 440, BAL), “S”; in experiment [6] (specimen DH 457, BAL) it was “S”; in [6] (specimen DH 485, BAL), “S”. Further, the “resistance phenotype result (S/R), MADM” value is listed as “S” in experiment [6] (specimen DH 509, BAL); “S” in [6] (specimen DH 514, Mini-BAL); “S” in experiment [6] (specimen DH 543, BAL); “S” in experiment [6] (specimen DH 550, BAL); “S” in experiment [6] (specimen DH 556, Mini-BAL); “R” in experiment [6] (specimen T12, ETA). In addition, the “MRSA/MSSA call by FOX in the MADM system” value in experiment [6] (the one discordant STAU sample) is “MRSA”. Moreover, the “Phenotype, sensitivity (growth in antibiotic)” value in the experiment on Enteric is on record as “all growth”; in the experiment on Steno (setting [10]), “growth, TZP-”; in the experiment on Steno (setting [11]), “growth, TZP-”. Also, the “Phenotype, sensitivity” value in the experiment with STAU is “FOX - R”. In addition, the “clone growth in drug” value in [7] is “growth indicating MRSA phenotype”.

As for `O=[N+]([O-])c1ccc(N[C@H]2C(O)O[C@H](CO)[C@@H](O)[C@@H]2O)c2nonc12` (stereo partly shown) [2-NBDG], the fluorescent labeling entry was “fluorescently labeled” in the experiment with E. coli [8]; “did not fluoresce” in the experiment on H. influenzae; “fluorescently labeled” in the experiment on K. pneumoniae; “did not fluoresce” in the experiment on S. aureus; “did not fluoresce” with S. maltophilia.

Turning to `CCCCN1C(=O)C(=CC=Cc2c(O)n(CCCC)c(=O)n(CCCC)c2=O)C(=O)N(CCCC)C1=O` [DiBAC4(3)], the cells stained in the experiment with E. coli [9] (heat-killed E. coli) stood at 95%; with E. coli [9] (overnight refrigerator stock (control) E. coli), 18.5%.
